Measured values published in patent publication US20230406850A1, “CRYSTALLINE FORM OF HETEROCYCLIC COMPOUND, PREPARATION METHOD THEREFOR AND APPLICATION THEREOF” (WUHAN LL SCIENCE AND TECHNOLOGY DEVELOPMENT CO., LTD., priority 2020, published 2023).
Values after ≈ are worked out from the molar mass of the structure shown. Like-named read-outs stand apart in the source and are kept apart here.

What was measured:
[1] = Solid form change on dehydration, drying or ambient humidity (XRPD); assay type: physicochemical
Description: Combined with DSC and TGA pattern, it can be seen that the product is hydrate with about 0.34 water molecules.

[2] = Dynamic vapor sorption (DVS) hygroscopicity; assay type: physicochemical
Method: The solid was analyzed by DVS using IGA sorp dynamic vapor sorption instrument. • Temperature: 25° C. • Gas flow: 250 mL/min. • Scan cycle: 2. • Minimum test time: 30 min. • Maximum test time: 2 hours. • Waiting for balance: 98%.

[3] = Water activity experiment (slurry in acetone/water); assay type: physicochemical; conditions: three days
Method: Water activity experiment was carried out. Crystalline forms I and V ([…]) were slurried in a mixed solvent in acetone/water with different water contents at room temperature and 60° C. for three days, and after three days, solid sample was filtered to test XRPD, and the experimental results are as shown in Table 4.

[4] = Competitive slurrying experiment of crystalline forms I and V; assay type: physicochemical; conditions: acetone, ethanol, room temperature and 60° C., three days
Method: Competitive slurrying experiment was carried out: the same amount of crystalline forms I and V were weighed and mixed evenly, then XRPD was tested, and the results were used as T0 of competitive slurrying experiment. The mixture was slurried in acetone, ethanol and water at room temperature and 60° C. Three days later, solid samples were obtained by filtration, and. XRPD was tested.

[5] = Solid-state crystal transformation between crystalline forms I and V; assay type: physicochemical; conditions: mixture of forms I and V, oven at 60° C. and room temperature dryer, one week
[6] = Physical and chemical stability (stability boxes, XRPD and HPLC); assay type: physicochemical; conditions: for Purity -7 days (peak area %) / XRPD: 7 days
Method: About 10 mg of crystalline forms I, III and V were placed in the stability boxes at 40° C./75% RH (open) and 60° C. (covered) for seven days, and some samples were taken out for XRPD and HPLC tests at 0 and 7 days, respectively, to investigate their physical and chemical stability.

[7] = Solubility in biological media SGF, FaSSIF and FeSSIF; assay type: physicochemical; conditions: for solubility at 0.5 h / solubility at 2 h / Solubility: 37° C.
Method: Compared with other crystalline forms, crystalline forms I, III and V show good solid properties, so their solubility was tested respectively.
10 mg of the sample was weighed, and then 2.0 mL of biological media buffer (i.e. the target concentration is 5 mg/mL) was added to form a suspension. The mixture was put in a constant temperature water bath shaker (37° C., 100 rpm), and sampled 500 μL at 0.5, 2 and 24 hours respectively. After filtration, the pH value and HPLC concentration of filtrate were tested respectively, and the solid sample obtained by filtration was tested by XRPD.

[8] = Pharmacokinetics, crystalline form I versus crystalline form V; assay type: in vivo, Beagle dog; conditions: 10 mg/kg po, fasting, male dogs, 0.5% CMC-Na suspension, plasma
Method: Beagle dog (general grade, Beijing Masi Biotechnology Co., Ltd.) was given compound A by single oral gavage to study the pharmacokinetics of the compound in plasma. The test drug (100 mg/kg dosage, 5 mL/kg administration volume) was given by gavage, and samples were collected at 10 minutes, 30 minutes, 1 hour, 2 hours, 4 hours, 6 hours, 8 hours, 10 hours, 24 hours and 48 hours after administration: peripheral venipuncture was performed, and about 1.0 mL whole blood was collected from each animal at every time point, and blood samples were collected. Within 60 minutes after blood collection, 0.2 mL of whole blood was separated into a cryopreservation tube, and deionized water was added at a ratio of 1:1, which was mixed upside down and then frozen. The remaining samples were centrifuged at 2,000 g at 2 to 8° C. for 10 min to obtain plasma samples, and the hemolysis of each sample was recorded, and the influence on detection was evaluated, and then the color of plasma was observed and recorded on the blood collection table (“−” means no hemolysis, “+” means pink supernatant and “++” means red supernatant).
The concentration of compound A in plasma was determined by LC-MS/MS method (Non-GLP). The pharmacokinetic parameters were calculated by WinNonlin (Phoenix™, version 8.1) or other similar software. If applicable plasma drug concentration-time data are available, the following pharmacokinetic parameters are calculated: CL (clearance), Vss (steady-state apparent volume of distribution), T1/2 (elimination half-life), Cmax (peak concentration), Tmax (peak time), AUC (area under the concentration-time curve), MRT (mean residence time). Pharmacokinetic data were described by descriptive statistics, such as mean, standard deviation and sample size.
Comparison of crystalline form and crystalline form V is the same for 3 dogs (male), 10 mg/kg po, fasting, 0.5% CMC-Na stirring for 3 hours, and then administration (suspension), and the data obtained are as shown in Table 7.

[9] = system: Dunkin Hartley guinea pigs, ATP-citric acid induced cough; assay: ATP-citric acid cough model; assay type: in vivo, guinea pig
Method: Male Dunkin Hartley guinea pigs (300-400 g) were placed in a whole-body volume scanning box for 3 to 5 minutes, and then subjected to ATP atomization for 2 minutes, with an interval of 3 minutes, followed by citric acid atomization for 5 minutes, and all atomization rates were about 300 μL/min. From citrate acid atomization, cough times and cough latency of animals within 10 min were recorded. During the 10-minute observation period, manual counting of coughs was required, and the number of coughs was judged according to the guinea pig's coughing posture, such as abdominal twitching, mouth opening, head down hooking, etc., as well as the sound of coughing, the number of coughs in the first 10 minutes were recorded, and the cough incubation period of guinea pigs was also recorded.
Animals were divided into vehicle group, dextromethorphan (63 mg/kg) positive group, AF-219 (30 mg/kg) positive group and compound 172 (3, 10, 30 mg/kg) administration group of Embodiment. All compounds were administered orally, except dextromethorphan, which was administered 40 minutes before ATP-citric acid exposure, and the rest compounds were […].

[10] = 63 mg/kg oral, 40 minutes before ATP-citric acid exposure

Compound: COC(=O)N1CCO[C@@H](Cc2c(-c3c(F)cc(S(N)(=O)=O)cc3F)nc3cc(Cl)ccn23)C1 [Crystalline form VI, methyl (S)-2-((7-chloro-2-(2,6-difluoro-4-sulfamoylphenyl)imidazo[1,2-a]pyridin-3-yl)methyl)morpholine-4-carboxylate]
- crystalline form after being placed under ambient humidity ([1]; 35% RH, a few minutes): transforms into crystalline form I

Compound: COC(=O)N1CCO[C@@H](Cc2c(-c3c(F)cc(S(N)(=O)=O)cc3F)nc3cc(Cl)ccn23)C1 [Crystalline form IV, methyl (S)-2-((7-chloro-2-(2,6-difluoro-4-sulfamoylphenyl)imidazo[1,2-a]pyridin-3-yl)methyl)morpholine-4-carboxylate]
- crystalline form after dehydration ([1]; heating to dehydration, then ambient humidity): becomes crystalline form I again

Compound: COC(=O)N1CCO[C@@H](Cc2c(-c3c(F)cc(S(N)(=O)=O)cc3F)nc3cc(Cl)ccn23)C1 [Crystalline form V, methyl (S)-2-((7-chloro-2-(2,6-difluoro-4-sulfamoylphenyl)imidazo[1,2-a]pyridin-3-yl)methyl)morpholine-4-carboxylate]
- XRPD before and after the DVS test [2]: no obvious change in the XRPD
- hygroscopicity (DVS) ([2]; 80% RH, 25° C.): 0.7%
- The experimental results (crystalline form) ([3]; water content 10%, 60° C.): Crystalline form VI
- The experimental results (crystalline form) ([3]; water content 10%, RT): Crystalline form I
- The experimental results (crystalline form) ([3]; water content 50%, 60° C.): Crystalline form IV
- The experimental results (crystalline form) ([3]; water content 50%, RT): Crystalline form IV
- The experimental results (crystalline form) ([3]; water content 90%, 60° C.): Crystalline form IV
- The experimental results (crystalline form) ([3]; water content 90%, RT): Crystalline form IV
- relative stability inferred from competitive slurrying and water activity tests [4]: stable at high temperature (60° C.) in water
- mutual crystal transformation in solid state [5]: no mutual crystal transformation trend
- Initial purity (Peak area %) ([6]; 0 days): 99.29 peak area %
- Purity -7 days (peak area %) ([6]; 40° C./75% RH (open)): 99.28 peak area %
- XRPD ([6]; 40° C./75% RH (open)): Constant
- stability conclusion in words ([6]; 40° C./75% RH and 60° C., seven days): good physical and chemical stability
- Purity -7 days (peak area %) ([6]; 60° C. (covered)): 99.30 peak area %
- XRPD ([6]; 60° C. (covered)): Constant
- solubility at 0.5 h ([7]; FaSSIF, 37 °C, fassif, thermodynamic from solid, FaSSIF, 0.5 h, read-out: Solubility): 30 µg/mL (≈ 59.9 µM)
- solubility at 2 h ([7]; FaSSIF, 37 °C, fassif, thermodynamic from solid, FaSSIF, 2 h, read-out: Solubility): 34 µg/mL (≈ 67.9 µM)
- solubility at 24 h ([7]; FaSSIF, 37 °C, thermodynamic from solid, 24 h): 45 µg/mL (≈ 89.8 µM)
- XRPD of remaining solid ([7]; FaSSIF, 0.5 h): Unchanged
- pH of filtrate ([7]; FaSSIF, 0.5 h): 6.4
- XRPD of remaining solid ([7]; FaSSIF, 2 h): Unchanged
- pH of filtrate ([7]; FaSSIF, 2 h): 6.4
- XRPD of remaining solid ([7]; FaSSIF, 24 h): Unchanged
- pH of filtrate ([7]; FaSSIF, 24 h): 6.4
- XRPD of remaining solid ([7]; FeSSIF, 0.5 h): Unchanged
- pH of filtrate ([7]; FeSSIF, 0.5 h): 5.0
- Solubility ([7]; FeSSIF, 0.5 h): 91 µg/mL (≈ 182 µM)
- XRPD of remaining solid ([7]; FeSSIF, 2 h): Unchanged
- pH of filtrate ([7]; FeSSIF, 2 h): 5.0
- Solubility ([7]; FeSSIF, 2 h): 93 µg/mL (≈ 186 µM)
- XRPD of remaining solid ([7]; FeSSIF, 24 h): Unchanged
- pH of filtrate ([7]; FeSSIF, 24 h): 5.1
- Solubility ([7]; FeSSIF, 24 h): 121 µg/mL (≈ 242 µM)
- solubility at 0.5 h ([7]; SGF, 37 °C, simulated gastric fluid, thermodynamic from solid, SGF, 0.5 h, read-out: Solubility): 4330 µg/mL (≈ 8650 µM)
- solubility at 2 h ([7]; SGF, 37 °C, simulated gastric fluid, thermodynamic from solid, SGF, 2 h, read-out: Solubility (visual observation)): > 5000 µg/mL
- pH of filtrate ([7]; SGF, 0.5 h): 1.2
- pH of filtrate ([7]; SGF, 2 h): 1.1
- pH of filtrate ([7]; SGF, 24 h): 1.2
- AUClast [8]: 2637.43 ng·h/mL
- Cmax [8]: 170.43 ng/mL
- F [8]: 11.7%
- MRTlast [8]: 10.39 h
- T1/2 [8]: 44.35 h
- Tmax [8]: 4.67 h

Compound: COc1ccc2c(c1)[C@]13CCCC[C@@H]1[C@H](C2)N(C)CC3 [Dextromethorphan, dextromethorphan, reference compound]
- Cough suppression rate vs Vehicle [9, 10]: 61.60%
- Coughing times in 10 min [9, 10]: 8.00
- effect on number of coughs compared with the vehicle group, in words ([9]; guinea pig, in vivo): significantly reduce the number of coughs

Compound: COC(=O)N1CCO[C@@H](Cc2c(-c3c(F)cc(S(N)(=O)=O)cc3F)nc3cc(Cl)ccn23)C1 [Crystalline form VIII, methyl (S)-2-((7-chloro-2-(2,6-difluoro-4-sulfamoylphenyl)imidazo[1,2-a]pyridin-3-yl)methyl)morpholine-4-carboxylate]
- crystalline form after desolvation by vacuum drying ([1]; vacuum drying at 40° C. for 3 hours): transformed into crystalline form I
